Experimental data published in US20070099996A1, “Pharmaceutical compositions of acitretin” (priority 2003, published 2007).

Key:
[1] = cited from earlier work
[2] = Comparative particle size distribution; format: physicochemical
Description: Comparative particle size distribution of unmilled acitretin, air-jet milled acitretin, oil-milled and wet milled solid dispersion of acitretin.

Question: With COc1cc(C)c(/C=C/C(C)=C/C=C/C(C)=C/C(=O)O)c(C)c1C [Acitretin] as the molecule, how does the Solubility in water [1] read?
Answer: Its Solubility in water is “practically insoluble”.

Question: With COc1cc(C)c(/C=C/C(C)=C/C=C/C(C)=C/C(=O)O)c(C)c1C [Air-jet milled acitretin, acitretin] as the molecule, how does the “Particle size D10” value [2] read?
Answer: The value was 2.13 microns.

Question: And the “Particle size D50” value [2]?
Answer: The value was 5.51 microns.

Question: And the “Particle size D90” value [2]?
Answer: Its value is 14.48 microns.

Question: With COc1cc(C)c(/C=C/C(C)=C/C=C/C(C)=C/C(=O)O)c(C)c1C [Unmilled acitretin, acitretin] as the molecule, how does the “Particle size D10” value [2] read?
Answer: Its value is 11.14 microns.

Question: And the “Particle size D50” value [2]?
Answer: The value was 39.59 microns.

Question: And the “Particle size D90” value [2]?
Answer: Its value is 105.0 microns.
